The values that follow come from US9498483B2, “2,3,5-trisubstituted thiophene compounds and uses thereof” (priority 2010, dated 2016).

For one experiment, the target named is T1, HCV polymerase (Hepatitis C virus genotype 1b, UniProt Q9WMX2).
T1 construct: (His)6 (C); made in house; host or cells: XL-1 cells (E. coli, by own knowledge)
The experiment is described as follows: Polymerase assay of Biological Example 1 (IC50 values of Table 3). It is filed as biochemical. The following applies: IC50 values of Table 3, polymerase assay of Biological Example 1; read-out: NS5B-enzyme3.

Experiment [1] concerns HCV replicon I389luc-ubi-neo/NS3-3′/ET in ET (Huh-lucubineo-ET) cells. The experiment is described as follows: Replicon assay (Biological Example 2), luciferase readout. It is filed as cell-based. The following applies: Hepatitis C virus. The essentials:
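EC50 values come from Hill fits of % inhibition of replicon-driven firefly luciferase, relative to no-compound wells. Compounds were serially diluted (10 points, 3-fold, 0.1 nM–50 μM final, 0.5% DMSO) onto ET replicon cells and read after 48 h.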
In general terms: In antiviral work, replicon cells carry a viral genome segment that copies itself.

[2] abbreviates: ET cells, luciferase activity 48 hours after compound.

The structures appear in SMILES notation.

As to `CCCN(CCC)c1ccc(S(=O)(=O)N2CC(=O)N(c3cc(-c4ccccc4)sc3C(=O)O)C(C3CCCCC3)C2)cn1` (stereo not drawn) [Compound 77, 3-[2-Cyclohexyl-4-(6-dipropylamino-pyridine-3-sulfonyl)-6-oxo-piperazin-1-yl]-5-phenyl-thiophene-2-carboxylic acid], the IC50 on HCV polymerase was 3 nM; in experiment [1] (setting [2]), no more than 100 nM.
The matching figures for `COCCNc1ccc(S(=O)(=O)N2CC(=O)N(c3cc(-c4ccccc4)sc3C(=O)O)C(C3CCCCC3)C2)cn1` (stereo not drawn) [Compound 78, 3-{2-Cyclohexyl-4-[6-(2-methoxy-ethylamino)-pyridine-3-sulfonyl]-6-oxo-piperazin-1-yl}-5-phenyl-thiophene-2-carboxylic acid]: 5 nM and no more than 100 nM.
Taken in the same sequence, the figures for `O=C(O)c1sc(-c2ccccc2)cc1N1C(=O)CN(S(=O)(=O)c2ccc(N3CCSCC3)nc2)CC1C1CCCCC1` (stereo not drawn) [Compound 79, 3-[2-Cyclohexyl-6-oxo-4-(6-thiomorpholin-4-yl-pyridine-3-sulfonyl)-piperazin-1-yl]-5-phenyl-thiophene-2-carboxylic acid] were 4 nM and no more than 100 nM.
The matching figures for `COCCN(CCOC)c1ccc(S(=O)(=O)N2CC(=O)N(c3cc(-c4ccccc4)sc3C(=O)O)C(C3CCCCC3)C2)cn1` (stereo not drawn) [Compound 80, 3-(4-{6-[Bis-(2-methoxy-ethyl)-amino]-pyridine-3-sulfonyl}-2-cyclohexyl-6-oxo-piperazin-1-yl)-5-phenyl-thiophene-2-carboxylic acid]: 6 nM and no more than 100 nM.
For `CN(C)CCNc1ccc(S(=O)(=O)N2CC(=O)N(c3cc(-c4ccccc4)sc3C(=O)O)C(C3CCCCC3)C2)cn1` (stereo not drawn) [Compound 81, 3-{2-Cyclohexyl-4-[6-(2-dimethylamino-ethylamino)-pyridine-3-sulfonyl]-6-oxo-piperazin-1-yl}-5-phenyl-thiophene-2-carboxylic acid], the IC50 at HCV polymerase is 9 nM; in experiment [1] (setting [2]) it was no more than 100 nM.
The matching figures for `O=C(O)c1sc(-c2ccccc2)cc1N1C(=O)CN(S(=O)(=O)c2ccc(NC3CCCC3)nc2)CC1C1CCCCC1` (stereo not drawn) [Compound 82, 3-[2-Cyclohexyl-4-(6-cyclopentylamino-pyridine-3-sulfonyl)-6-oxo-piperazin-1-yl]-5-phenyl-thiophene-2-carboxylic acid]: 6 nM and no more than 100 nM.
As for `O=C(O)c1sc(-c2ccccc2)cc1N1C(=O)CN(S(=O)(=O)c2ccc(N(CCO)CCO)nc2)CC1C1CCCCC1` (stereo not drawn) [Compound 83, 3-(4-{6-[Bis-(2-hydroxy-ethyl)-amino]-pyridine-3-sulfonyl}-2-cyclohexyl-6-oxo-piperazin-1-yl)-5-phenyl-thiophene-2-carboxylic acid], the IC50 was 3 nM on HCV polymerase; 100 to 5000 nM in experiment [1] (between 100 nM and 5.0 uM).
On to `O=C(O)c1sc(-c2ccccc2)cc1N1C(=O)CN(S(=O)(=O)c2ccc(N3CCCCC3)nc2)CC1C1CCCCC1` (stereo not drawn) [Compound 84, 3-[2-Cyclohexyl-6-oxo-4-(3,4,5,6-tetrahydro-2H-[1,2′]bipyridinyl-5′-sulfonyl)-piperazin-1-yl]-5-phenyl-thiophene-2-carboxylic acid], for which the figures for the IC50 (on HCV polymerase; in experiment [1] (setting [2])) were 4 nM and no more than 100 nM, respectively.
For `CC(C)Nc1ccc(S(=O)(=O)N2CC(=O)N(c3cc(-c4ccccc4)sc3C(=O)O)C(C3CCCCC3)C2)cn1` (stereo not drawn) [Compound 85, 3-[2-Cyclohexyl-4-(6-isopropylamino-pyridine-3-sulfonyl)-6-oxo-piperazin-1-yl]-5-phenyl-thiophene-2-carboxylic acid], the IC50 on HCV polymerase is 2 nM; in experiment [1] (setting [2]) it was no more than 100 nM.
Taken in the same sequence, the figures for `O=C(O)c1sc(-c2ccccc2)cc1N1C(=O)CN(S(=O)(=O)c2ccc(NCCO)nc2)CC1C1CCCCC1` (stereo not drawn) [Compound 86, 3-{2-Cyclohexyl-4-[6-(2-hydroxy-ethylamino)-pyridine-3-sulfonyl]-6-oxo-piperazin-1-yl}-5-phenyl-thiophene-2-carboxylic acid] were 6 nM and no more than 100 nM.
On to `CC1CN(c2ccc(S(=O)(=O)N3CC(=O)N(c4cc(-c5ccccc5)sc4C(=O)O)C(C4CCCCC4)C3)cn2)CC(C)O1` (stereo not drawn) [Compound 87, 3-{2-Cyclohexyl-4-[6-(2,6-dimethyl-morpholin-4-yl)-pyridine-3-sulfonyl]-6-oxopiperazin-1-yl}-5-phenyl-thiophene-2-carboxylic acid], for which the IC50 at HCV polymerase was 5 nM; in experiment [1] (setting [2]), no more than 100 nM.
In the case of `O=C(O)c1sc(-c2ccccc2)cc1N1C(=O)CN(S(=O)(=O)c2ccc(N3CCNCC3)nc2)CC1C1CCCCC1` (stereo not drawn) [Compound 88, 3-[2-Cyclohexyl-6-oxo-4-(6-piperazin-1-yl-pyridine-3-sulfonyl)-piperazin-1-yl]-5-phenyl-thiophene-2-carboxylic acid], the IC50 at HCV polymerase was 2.13 nM; in experiment [1] (setting [2]), no more than 100 nM.
As to `CC(=O)N1CCN(c2ccc(S(=O)(=O)N3CC(=O)N(c4cc(-c5ccccc5)sc4C(=O)O)C(C4CCCCC4)C3)cn2)CC1` (stereo not drawn) [Compound 89, 3-{4-[6-(4-Acetyl-piperazin-1-yl)-pyridine-3-sulfonyl]-2-cyclohexyl-6-oxo-piperazin-1-yl}-5-phenyl-thiophene-2-carboxylic acid], the IC50 on HCV polymerase is 3 nM; in experiment [1] (setting [2]), no more than 100 nM.
With `O=C(O)c1sc(-c2ccccc2)cc1N1C(=O)CN(S(=O)(=O)c2ccc(NC3CCOCC3)nc2)CC1C1CCCCC1` (stereo not drawn) [Compound 90, 3-{2-Cyclohexyl-6-oxo-4-[6-(tetrahydro-pyran-4-ylamino)-pyridine-3-sulfonyl]-piperazin-1-yl}-5-phenyl-thiophene-2-carboxylic acid], the values for the IC50 (on HCV polymerase; in experiment [1] (setting [2])) were 4 nM and no more than 100 nM, respectively.
Taken in the same sequence, the figures for `CN(c1ccc(S(=O)(=O)N2CC(=O)N(c3cc(-c4ccccc4)sc3C(=O)O)C(C3CCCCC3)C2)cn1)C1CCCCC1` (stereo not drawn) [Compound 91, 3-{2-Cyclohexyl-4-[6-(cyclohexyl-methyl-amino)-pyridine-3-sulfonyl]-6-oxo-piperazin-1-yl}-5-phenyl-thiophene-2-carboxylic acid] were 12 nM and no more than 100 nM.
Taken in the same sequence, the figures for `CC1CCC(C)N1c1ccc(S(=O)(=O)N2CC(=O)N(c3cc(-c4ccccc4)sc3C(=O)O)C(C3CCCCC3)C2)cn1` (stereo not drawn) [Compound 92, 3-{2-Cyclohexyl-4-[6-(2,5-dimethyl-pyrrolidin-1-yl)-pyridine-3-sulfonyl]-6-oxo-piperazin-1-yl}-5-phenyl-thiophene-2-carboxylic acid] were 4 nM and no more than 100 nM.
In the case of `O=C(O)c1sc(-c2ccccc2)cc1N1C(=O)CN(S(=O)(=O)c2ccc(N3CCC(O)CC3)nc2)CC1C1CCCCC1` (stereo not drawn) [Compound 93, 3-[2-Cyclohexyl-4-(4-hydroxy-3,4,5,6-tetrahydro-2H-[1,2′]bipyridinyl-5′-sulfonyl)-6-oxo-piperazin-1-yl]-5-phenyl-thiophene-2-carboxylic acid], the IC50 was 4 nM at HCV polymerase and no more than 100 nM in experiment [1] (setting [2]).
The matching figures for `COC1CCN(c2ccc(S(=O)(=O)N3CC(=O)N(c4cc(-c5ccccc5)sc4C(=O)O)C(C4CCCCC4)C3)cn2)CC1` (stereo not drawn) [Compound 94, 3-[2-Cyclohexyl-4-(4-methoxy-3,4,5,6-tetrahydro-2H-[1,2′]bipyridinyl-5′-sulfonyl)-6-oxo-piperazin-1-yl]-5-phenyl-thiophene-2-carboxylic acid]: 2 nM and no more than 100 nM.
The matching figures for `O=C(O)c1sc(-c2ccccc2)cc1N1C(=O)CN(S(=O)(=O)c2ccc(N3CCC(F)(F)CC3)nc2)CC1C1CCCCC1` (stereo not drawn) [Compound 95, 3-[2-Cyclohexyl-4-(4,4-difluoro-3,4,5,6-tetrahydro-2H-[1,2′]bipyridinyl-5′-sulfonyl)-6-oxo-piperazin-1-yl]-5-phenyl-thiophene-2-carboxylic acid]: 5 nM and no more than 100 nM.
Consider `N#Cc1cccc(S(=O)(=O)N2CC(=O)N(c3cc(-c4ccccc4)sc3C(=O)O)[C@H](C3CCCCC3)C2)c1` [Compound 97, 3-[(R)-4-(3-Cyano-benzenesulfonyl)-2-cyclohexyl-6-oxo-piperazin-1-yl]-5-phenyl-thiophene-2-carboxylic acid], for which the IC50 is 27 nM on HCV polymerase; 100 to 5000 nM in experiment [1] (between 100 nM and 5.0 uM).
`CNC(=O)c1ccc(S(=O)(=O)N2CC(=O)N(c3cc(-c4ccccc4)sc3C(=O)O)C(C3CCCCC3)C2)cc1` (stereo not drawn) [Compound 98, 3-[2-Cyclohexyl-4-(4-methylcarbamoyl-benzenesulfonyl)-6-oxo-piperazin-1-yl]-5-phenyl-thiophene-2-carboxylic acid]: the IC50 at HCV polymerase was 3 nM; in experiment [1] (between 100 nM and 5.0 uM) it was 100 to 5000 nM.
For `CN1CCOc2cc(S(=O)(=O)N3CC(=O)N(c4cc(-c5ccccc5)sc4C(=O)O)C(C4CCCCC4)C3)cnc21` (stereo not drawn) [Compound 99, 3-[2-Cyclohexyl-4-(4-methyl-3,4-dihydro-2H-pyrido[3,2-b][1,4]oxazine-7-sulfonyl)-6-oxo-piperazin-1-yl]-5-phenyl-thiophene-2-carboxylic acid], the results for the IC50 (at HCV polymerase; in experiment [1] (setting [2])) were 2 nM and no more than 100 nM, respectively.
In the case of `CC(C)c1ccc(S(=O)(=O)N2CC(=O)N(c3cc(-c4ccccc4)sc3C(=O)O)C(C3CCCCC3)C2)cc1` (stereo not drawn) [Compound 100, 3-[2-Cyclohexyl-4-(4-isopropyl-benzenesulfonyl)-6-oxo-piperazin-1-yl]-5-phenyl-thiophene-2-carboxylic acid], the IC50 on HCV polymerase was 4 nM; in experiment [1] (between 100 nM and 5.0 uM), 100 to 5000 nM.
With `O=C(O)c1sc(-c2ccccc2)cc1N1C(=O)CN(S(=O)(=O)c2ccc(-n3cccn3)cc2)CC1C1CCCCC1` (stereo not drawn) [Compound 101, 3-[2-Cyclohexyl-6-oxo-4-(4-pyrazol-1-yl-benzenesulfonyl)-piperazin-1-yl]-5-phenyl-thiophene-2-carboxylic acid], the IC50 is 11 nM on HCV polymerase; 100 to 5000 nM in experiment [1] (between 100 nM and 5.0 uM).
